ChEMBL document CHEMBL2375325, “Anti-neuroinflammatory properties of synthetic cryptolepine in human neuroblastoma cells: possible involvement of NF-κB and p38 MAPK inhibition” (Eur J Med Chem, 2013)
The source made the active and inactive calls. The rule behind the calls is not given here.

Tests used:
[1] = target: T1, MAP kinase p38 (Homo sapiens) (UniProt O15264+Q15759+Q16539+P53778); test: Inhibition of IL1beta-induced p38 MAPK phosphorylation in human SK-N-SH cells at 10 to 20 uM preincubated for 30 mins prior to IL1beta-stimulation measured after 1 hr by Western blotting analysis; type: cell-based
SK-N-SH [2] = test: Inhibition of microsomal PGES-1 gene expression in IL1beta-stimulated human SK-N-SH cells at 5 uM preincubated for 30 mins prior to IL1beta-stimulation measured after 4 hrs by qPCR analysis; type: functional, cell-based
SK-N-SH [3] = test: Inhibition of IL1beta-induced IkappaB phosphorylation in human SK-N-SH cells at 2.5 to 20 uM after 15 mins by ELISA; type: cell-based
SK-N-SH [4] = test: Antiinflammatory activity against human SK-N-SH cells assessed as inhibition of IL1beta-induced IL6 production at 2.5 to 20 uM preincubated for 30 mins prior to IL1beta-stimulation measured after 24 hrs by ELISA; type: functional, cell-based
[5] = target: T1, MAP kinase p38 (Homo sapiens); test: Inhibition of p38 MAPK in human SK-N-SH cells assessed as inhibition of IL1beta-induced MAPKAPK2 phosphorylation preincubated for 30 mins prior to IL1beta-stimulation measured after 1 hr by Western blotting analysis; type: cell-based
SK-N-SH [6] = test: Inhibition of microsomal PGES-1 gene expression in IL1beta-stimulated human SK-N-SH cells at 10 to 20 uM preincubated for 30 mins prior to IL1beta-stimulation measured after 4 hrs by qPCR analysis; type: functional, cell-based
SK-N-SH [7] = test: Inhibition of COX2 protein expression in IL1beta-stimulated human SK-N-SH cells at 2.5 uM after 24 hrs by Western blotting analysis relative to IL1beta-treated control; type: functional, cell-based
SK-N-SH [8] = test: Inhibition of COX2 gene expression in IL1beta-stimulated human SK-N-SH cells at 10 to 20 uM preincubated for 30 mins prior to IL1beta-stimulation measured after 4 hrs by qPCR analysis; type: functional, cell-based
SK-N-SH [9] = test: Inhibition of microsomal PGES-1 protein expression in IL1beta-stimulated human SK-N-SH cells at 2.5 uM after 24 hrs by Western blotting analysis; type: functional, cell-based
SK-N-SH [10] = test: Inhibition of microsomal PGES-1 protein expression in IL1beta-stimulated human SK-N-SH cells at 10 to 20 uM after 24 hrs by Western blotting analysis; type: functional, cell-based
SK-N-SH [11] = test: Inhibition of microsomal PGES-1 protein expression in IL1beta-stimulated human SK-N-SH cells at 5 uM after 24 hrs by Western blotting analysis; type: functional, cell-based
SK-N-SH [12] = test: Antiinflammatory activity against human SK-N-SH cells assessed as inhibition of IL1beta-induced PGE2 production preincubated for 30 mins prior to IL1beta-stimulation measured after 24 hrs by enzyme immunoassay; type: functional, cell-based
SK-N-SH [13] = test: Cytotoxicity against human SK-N-SH cells after 24 hrs by ATP assay; type: cell-based
SK-N-SH [14] = test: Inhibition of microsomal PGES-1 gene expression in IL1beta-stimulated human SK-N-SH cells at 2.5 uM preincubated for 30 mins prior to IL1beta-stimulation measured after 4 hrs by qPCR analysis; type: functional, cell-based
SK-N-SH [15] = test: Inhibition of COX2 protein expression in IL1beta-stimulated human SK-N-SH cells at 5 to 20 uM after 24 hrs by Western blotting analysis; type: functional, cell-based
[16] = target: Transcription factor p65 (Homo sapiens) (UniProt Q04206); test: Inhibition of IL1beta-induced NFkappaB p65 nuclear translocation in human SK-N-SH cells after 15 mins by ELISA; type: cell-based
Chain of Transcription factor p65 (Homo sapiens) (Q04206 whole entry): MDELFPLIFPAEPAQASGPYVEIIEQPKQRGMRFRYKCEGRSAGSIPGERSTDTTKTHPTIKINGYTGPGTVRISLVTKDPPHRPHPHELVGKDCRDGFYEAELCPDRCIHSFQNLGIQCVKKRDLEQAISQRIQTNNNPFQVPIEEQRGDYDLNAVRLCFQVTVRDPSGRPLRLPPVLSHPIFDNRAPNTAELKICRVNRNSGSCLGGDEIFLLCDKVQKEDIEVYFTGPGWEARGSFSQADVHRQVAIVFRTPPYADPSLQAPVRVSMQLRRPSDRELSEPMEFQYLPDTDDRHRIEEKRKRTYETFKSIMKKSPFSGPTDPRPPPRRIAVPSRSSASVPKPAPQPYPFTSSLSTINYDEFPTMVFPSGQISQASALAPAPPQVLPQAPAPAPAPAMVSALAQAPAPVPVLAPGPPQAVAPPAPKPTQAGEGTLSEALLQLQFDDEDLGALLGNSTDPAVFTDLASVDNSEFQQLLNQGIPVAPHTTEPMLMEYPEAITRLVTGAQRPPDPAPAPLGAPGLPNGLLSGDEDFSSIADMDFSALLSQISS

SK-N-SH [17] = test: Antiinflammatory activity against human SK-N-SH cells assessed as inhibition of IL1beta-induced TNFalpha production at 2.5 to 20 uM preincubated for 30 mins prior to IL1beta-stimulation measured after 24 hrs by ELISA; type: functional, cell-based

C[n+]1c2ccccc2cc2[n-]c3ccccc3c21.Cl [CRYPTOLEPINE HYDROCHLORIDE]
inhibition [1]: Active
inhibition (SK-N-SH [2]): Active
inhibition (SK-N-SH [3]): inactive
Activity (SK-N-SH [4]): Active
inhibition [5]: Dose-dependent effect
inhibition (SK-N-SH [6]): Active
inhibition (SK-N-SH [7]): inactive
inhibition (SK-N-SH [8]): Active
inhibition (SK-N-SH [9]): inactive
inhibition (SK-N-SH [10]): Active
inhibition (SK-N-SH [11]): inactive
Activity (SK-N-SH [12]): Dose-dependent effect
Activity (SK-N-SH [13]): Non-toxic
inhibition (SK-N-SH [14]): inactive
inhibition (SK-N-SH [15]): Active
inhibition [16]: Dose-dependent effect
Activity (SK-N-SH [17]): Active
